Type in all cases: functional
One assay deals with Staphylococcus aureus. Put plainly: Antibacterial activity against Staphylococcus aureus ATCC 29213 assessed as inhibition of bacterial growth measured for 18 to 24 hrs by broth dilution method. Particulars: time 18-24 hrs.
For assay [1], the system named is Mycobacterium tuberculosis. Put plainly: Antimycobacterial activity against Mycobacterium tuberculosis H37Rv ATCC 27294 assessed as inhibition of bacterial growth incubated for 18 to 24 hrs by broth dilution method. (Broth dilution looks for growth in wells or tubes with falling amounts of substance.)
Assay [2] concerns Mycobacterium tuberculosis. Kind of assay: Antimycobacterial activity against isoniazid-resisitant Mycobacterium tuberculosis ATCC 35822 assessed as inhibition of bacterial growth incubated for 18 to 24 hrs by broth dilution method. The settings on record: time 18-24 hrs.
The test system of assay [3] is Mycobacterium tuberculosis. Put plainly: Antimycobacterial activity against ethambutol-resisitant Mycobacterium tuberculosis ATCC 35837 assessed as inhibition of bacterial growth incubated for 18 to 24 hrs by broth dilution method. The settings on record: time 18-24 hrs.
In assay [4] the test system is Mycobacterium tuberculosis. Kind of assay: Antimycobacterial activity against streptomycin-resisitant Mycobacterium tuberculosis ATCC 35820 assessed as inhibition of bacterial growth incubated for 18 to 24 hrs by broth dilution method. The settings on record: time 18-24 hrs.
The subject of assay [5] is Mycobacterium tuberculosis. Put plainly: Antimycobacterial activity against rifampicin-resisitant Mycobacterium tuberculosis ATCC 35838 assessed as inhibition of bacterial growth incubated for 18 to 24 hrs by broth dilution method. The settings on record: time 18-24 hrs.

Values after ≈ are worked out from the molar mass of the structure shown.

`O=C(Nc1ccc(-n2ccc(-c3ccc(Cl)cc3Cl)n2)cc1)Nc1ccc(F)cc1F`: the minimal inhibitory concentration (MIC) (in the assay with Staphylococcus aureus; in assay [1]) was over 64 µg/mL throughout.
For the molecule `COc1ccc(-c2ccn(-c3ccc(NC(=S)NCc4ccccc4)cc3)n2)cc1OC`, the MIC was over 64 µg/mL with Staphylococcus aureus and 8 µg/mL (≈ 18 µM) in assay [1].
For `COc1ccc(-c2ccn(-c3ccc(NC(=S)Nc4ccc(C(F)(F)F)cc4)cc3)n2)cc1OC` the same measures were 2 µg/mL (≈ 4.01 µM) and 2 µg/mL (≈ 4.01 µM).
For `Cc1ccc(-c2ccn(-c3ccc(NC(=O)Nc4ccc(F)cc4F)cc3)n2)cc1` the same measures were over 64 µg/mL and over 64 µg/mL.
The like results for `O=C(NCc1ccccc1)Nc1ccc(-n2ccc(-c3ccc4ccccc4c3)n2)cc1` were, in that order, over 64 µg/mL and 64 µg/mL (≈ 153 µM).
As to `COc1ccccc1NC(=O)Nc1ccc(-n2ccc(-c3ccc(OC)c(OC)c3)n2)cc1`, the MIC was over 64 µg/mL in the assay with Staphylococcus aureus and 32 µg/mL (≈ 72 µM) in assay [1].
As to `COc1ccc(-c2ccn(-c3ccc(NC(=O)Nc4ccc(Cl)cc4Cl)cc3)n2)cc1OC`, the minimal inhibitory concentration (MIC) in the assay on Staphylococcus aureus is over 64 µg/mL; in assay [1], 16 µg/mL (≈ 33.1 µM).
For `COc1ccc(-c2ccn(-c3ccc(NC(=O)Nc4cccc(C(F)(F)F)c4)cc3)n2)cc1OC` the same measures were over 64 µg/mL and 8 µg/mL (≈ 16.6 µM).
For `COc1ccc(-c2ccn(-c3ccc(NC(=O)NS(=O)(=O)c4ccccc4)cc3)n2)cc1OC` the same measures were over 64 µg/mL and 16 µg/mL (≈ 33.4 µM).
Consider `COc1ccc(-c2ccn(-c3ccc(NC(=O)Nc4cccc(Cl)c4)cc3)n2)cc1OC`, for which the minimal inhibitory concentration (MIC) in the assay on Staphylococcus aureus amounted to 2 µg/mL (≈ 4.46 µM); in assay [1] it was 16 µg/mL (≈ 35.6 µM).
For `O=C(Nc1ccc(-n2ccc(-c3cccnc3)n2)cc1)Nc1ccc(F)cc1F` the same measures were over 64 µg/mL and 8 µg/mL (≈ 20.4 µM).
The like results for `O=C(NCc1ccccc1)Nc1ccc(-n2ccc(-c3ccc(Cl)cc3Cl)n2)cc1` were, in that order, over 64 µg/mL and 64 µg/mL (≈ 146 µM).
The like results for `COc1ccc(-c2ccn(-c3ccc(NC(=S)Nc4ccc(F)cc4F)cc3)n2)cc1OC` were, in that order, over 64 µg/mL and 16 µg/mL (≈ 34.3 µM).
For `O=C(Nc1ccc(-n2ccc(-c3ccc4ccccc4c3)n2)cc1)Nc1ccc(Cl)c(Cl)c1`, the minimum inhibitory concentration (MIC) with Staphylococcus aureus is over 64 µg/mL; in assay [1] it was 64 µg/mL (≈ 135 µM).
With `O=C(Nc1ccc(-n2ccc(-c3ccccc3)n2)cc1)Nc1ccc(F)cc1F`, the MIC (in the assay on Staphylococcus aureus; in assay [1]) was over 64 µg/mL in each case.
For the molecule `CCCCCCCNC(=S)Nc1ccc(-n2ccc(-c3ccc(OC)c(OC)c3)n2)cc1`, the minimal inhibitory concentration (MIC) is over 64 µg/mL in the assay on Staphylococcus aureus and 4 µg/mL (≈ 8.84 µM) in assay [1].
The like results for `O=C(Nc1ccc(-n2ccc(-c3ccccc3)n2)cc1)Nc1ccc(Cl)c(Cl)c1` were, in that order, over 64 µg/mL and 64 µg/mL (≈ 151 µM).
For `COc1cccc(NC(=S)Nc2ccc(-n3ccc(-c4ccc(OC)c(OC)c4)n3)cc2)c1` the same measures were over 64 µg/mL and 16 µg/mL (≈ 34.7 µM).
For `COc1ccc(-c2ccn(-c3ccc(NC(=S)Nc4ccc(C#N)cc4)cc3)n2)cc1OC` the same measures were over 64 µg/mL and 32 µg/mL (≈ 70.2 µM).
Consider `COc1cc(-c2ccn(-c3ccc(NC(=O)Nc4ccc(Cl)c(Cl)c4)cc3)n2)cc(OC)c1OC`, for which the MIC (in the assay on Staphylococcus aureus; in assay [1]) was over 64 µg/mL throughout.
Consider `COc1ccc(-c2ccn(-c3ccc(NC(=O)Nc4cccc(F)c4)cc3)n2)cc1OC`, for which the MIC in the assay on Staphylococcus aureus is over 64 µg/mL; in assay [1] it was 32 µg/mL (≈ 74 µM).
Regarding `COc1cc(-c2ccn(-c3ccc(NC(=O)Nc4ccc(F)cc4F)cc3)n2)cc(OC)c1OC`, the MIC with Staphylococcus aureus is over 64 µg/mL; in assay [1] it was 8 µg/mL (≈ 16.7 µM).
For `O=C(NCc1ccccc1)Nc1ccc(-n2ccc(-c3ccccc3)n2)cc1` the same measures were over 64 µg/mL and over 64 µg/mL.
The like results for `COc1ccc(-c2cn(-c3ccc(NC(=O)NCc4ccccc4)cc3)nn2)cc1OC` were, in that order, over 64 µg/mL and 16 µg/mL (≈ 37.3 µM).
For `COc1ccc(-c2ccn(-c3ccc(NC(=S)Nc4ccccc4)cc3)n2)cc1OC` the same measures were over 64 µg/mL and 8 µg/mL (≈ 18.6 µM).
Turning to `COc1ccc(-c2ccn(-c3ccc(NC(=S)Nc4cc(C)cc(C)c4)cc3)n2)cc1OC`, the results for the minimum inhibitory concentration (MIC) (with Staphylococcus aureus; in assay [1]) were over 64 µg/mL and 8 µg/mL (≈ 17.4 µM), respectively.
For `COc1ccc(NC(=S)Nc2ccc(-n3ccc(-c4ccc(OC)c(OC)c4)n3)cc2)c(OC)c1` the same measures were over 64 µg/mL and 32 µg/mL (≈ 65.2 µM).
The like results for `COc1ccc(-c2cn(-c3ccc(NC(=O)Nc4ccc(F)cc4F)cc3)nn2)cc1OC` were, in that order, over 64 µg/mL and 8 µg/mL (≈ 17.7 µM).
As to `COc1ccc(-c2ccn(-c3ccc(NC(=O)Nc4cccc(Cl)c4Cl)cc3)n2)cc1OC`, the minimum inhibitory concentration (MIC) with Staphylococcus aureus is over 64 µg/mL; in assay [1], 16 µg/mL (≈ 33.1 µM).
`COc1ccc(-c2ccn(-c3ccc(NC(=S)Nc4ccc([N+](=O)[O-])cc4)cc3)n2)cc1OC`: the minimum inhibitory concentration (MIC) in the assay with Staphylococcus aureus was over 64 µg/mL; in assay [1], 16 µg/mL (≈ 33.6 µM).
The like results for `O=C(Nc1ccc(-n2ccc(-c3ccc(Cl)cc3)n2)cc1)Nc1ccc(F)cc1F` were, in that order, over 64 µg/mL and over 64 µg/mL.
As to `COc1ccc(-c2ccn(-c3ccc(NC(=O)Nc4ccc(F)cc4F)cc3)n2)cc1`, the MIC in the assay with Staphylococcus aureus was over 64 µg/mL; in assay [1], 8 µg/mL (≈ 19 µM).
Regarding `COc1ccc(-c2cn(-c3ccc(NC(=O)Nc4ccc(Cl)c(Cl)c4)cc3)nn2)cc1OC`, the MIC was 4 µg/mL (≈ 8.26 µM) in the assay with Staphylococcus aureus and over 64 µg/mL in assay [1].
The like results for `COc1ccc(-c2ccn(-c3ccc(NC(=S)Nc4ccc(F)c(Cl)c4)cc3)n2)cc1OC` were, in that order, over 64 µg/mL and 16 µg/mL (≈ 33.1 µM).
With `COc1ccc(-c2ccn(-c3ccc(NC(=O)NCc4ccccc4)cc3)n2)cc1`, the MIC (in the assay with Staphylococcus aureus; in assay [1]) was over 64 µg/mL throughout.
Consider `COc1ccc(-c2ccn(-c3ccc(NC(=O)Nc4ccccc4)cc3)n2)cc1OC`, for which the MIC in the assay on Staphylococcus aureus was over 64 µg/mL; in assay [1], 8 µg/mL (≈ 19.3 µM).
In the case of `COc1ccc(-c2ccn(-c3ccc(NC(=O)Nc4ccc(Cl)c(Cl)c4)cc3)n2)cc1`, the results for the minimum inhibitory concentration (MIC) (in the assay on Staphylococcus aureus; in assay [1]) were over 64 µg/mL and 32 µg/mL (≈ 70.6 µM), respectively.
As to `COc1ccc(-c2ccn(-c3ccc(NC(=O)Nc4ccc(Cl)c(C(F)(F)F)c4)cc3)n2)cc1OC`, the MIC in the assay with Staphylococcus aureus amounted to 2 µg/mL (≈ 3.87 µM); in assay [1], 4 µg/mL (≈ 7.74 µM).
Regarding `COc1ccc(-c2ccn(-c3ccc(NC(=S)Nc4cccc5ccccc45)cc3)n2)cc1OC`, the MIC with Staphylococcus aureus was over 64 µg/mL; in assay [1], 16 µg/mL (≈ 33.3 µM).
For `Cc1ccc(-c2ccn(-c3ccc(NC(=O)Nc4ccc(Cl)c(Cl)c4)cc3)n2)cc1` the same measures were over 64 µg/mL and over 64 µg/mL.
For `O=C(Nc1ccc(-n2ccc(-c3ccc(Cl)cc3Cl)n2)cc1)Nc1ccc(Cl)c(Cl)c1` the same measures were over 64 µg/mL and over 64 µg/mL.
For `O=C(Nc1ccc(-n2ccc(-c3ccc4ccccc4c3)n2)cc1)Nc1ccc(F)cc1F` the same measures were over 64 µg/mL and over 64 µg/mL.
In the case of `Cc1ccc(-c2ccn(-c3ccc(NC(=O)NCc4ccccc4)cc3)n2)cc1`, the minimal inhibitory concentration (MIC) (in the assay with Staphylococcus aureus; in assay [1]) was over 64 µg/mL in each case.
`O=C(Nc1ccc(-n2ccc(-c3cccnc3)n2)cc1)Nc1ccc(Cl)c(Cl)c1`: the MIC in the assay on Staphylococcus aureus was over 64 µg/mL; in assay [1], 16 µg/mL (≈ 37.7 µM).
The like results for `COc1ccc(-c2ccn(-c3ccc(NC(=O)Nc4cc(Cl)ccc4Cl)cc3)n2)cc1OC` were, in that order, over 64 µg/mL and over 64 µg/mL.
For `COc1ccc(-c2ccn(-c3ccc(NC(=O)Nc4c(C)cccc4C)cc3)n2)cc1OC` the same measures were over 64 µg/mL and over 64 µg/mL.
With `COc1ccc(NC(=S)Nc2ccc(-n3ccc(-c4ccc(OC)c(OC)c4)n3)cc2)cc1`, the minimal inhibitory concentration (MIC) in the assay with Staphylococcus aureus was over 64 µg/mL; in assay [1] it was 8 µg/mL (≈ 17.4 µM).
The like results for `O=C(NCc1ccccc1)Nc1ccc(-n2ccc(-c3ccc(Cl)cc3)n2)cc1` were, in that order, over 64 µg/mL and over 64 µg/mL.
For `COc1ccc(-c2ccn(-c3ccc(NC(=O)Nc4ccccc4C)cc3)n2)cc1OC`, the MIC was over 64 µg/mL in the assay with Staphylococcus aureus and 16 µg/mL (≈ 37.3 µM) in assay [1].
For `COc1ccc(-c2ccn(-c3ccc(NC(=S)Nc4cc(C(F)(F)F)cc(C(F)(F)F)c4)cc3)n2)cc1OC` the same measures were 1 µg/mL (≈ 1.77 µM) and 16 µg/mL (≈ 28.2 µM).
For `COc1ccc(-c2ccn(-c3ccc(NC(=S)Nc4cccc(Br)c4)cc3)n2)cc1OC` the same measures were 64 µg/mL (≈ 126 µM) and 16 µg/mL (≈ 31.4 µM).
The like results for `COc1ccc(-c2ccn(-c3ccc(NC(=S)Nc4ccc(C)cc4)cc3)n2)cc1OC` were, in that order, over 64 µg/mL and 64 µg/mL (≈ 144 µM).
For the molecule `NNC(=O)c1ccncc1` [ISONIAZID], the MIC in assay [1] was 0.03 µg/mL (≈ 0.219 µM); in assay [2], over 64 µg/mL; in assay [3], 0.03 µg/mL (≈ 0.219 µM); in assay [4], 0.03 µg/mL (≈ 0.219 µM); in assay [5], 0.03 µg/mL (≈ 0.219 µM).
For `O=C(Nc1ccc(-n2ccc(-c3ccc(Cl)cc3)n2)cc1)Nc1ccc(Cl)c(Cl)c1`, the figures for the MIC (in the assay on Staphylococcus aureus; in assay [1]) were over 64 µg/mL and 8 µg/mL (≈ 17.5 µM), respectively.
In the case of `COc1ccc(-c2ccn(-c3ccc(NC(=O)Nc4ccc(C)c(Cl)c4)cc3)n2)cc1OC`, the minimal inhibitory concentration (MIC) with Staphylococcus aureus is over 64 µg/mL; in assay [1], 4 µg/mL (≈ 8.64 µM).
The like results for `COc1ccc(-c2ccn(-c3ccc(NC(=S)Nc4ccc(Cl)cc4)cc3)n2)cc1OC` were, in that order, over 64 µg/mL and 8 µg/mL (≈ 17.2 µM).
The like results for `COc1ccc(-c2ccn(-c3ccc(NC(=S)Nc4cccc(Cl)c4)cc3)n2)cc1OC` were, in that order, over 64 µg/mL and 16 µg/mL (≈ 34.4 µM).
For `O=C(NCc1ccccc1)Nc1ccc(-n2ccc(-c3cccnc3)n2)cc1` the same measures were over 64 µg/mL and 8 µg/mL (≈ 21.7 µM).
With `COc1ccc(-c2ccn(-c3ccc(NC(=S)NC4CCCCC4)cc3)n2)cc1OC`, the results for the minimum inhibitory concentration (MIC) (in the assay on Staphylococcus aureus; in assay [1]) were over 64 µg/mL and 16 µg/mL (≈ 36.6 µM), respectively.
In the case of `COc1ccc(-c2ccn(-c3ccc(NC(=S)Nc4ccc(F)cc4)cc3)n2)cc1OC`, the values for the MIC (in the assay with Staphylococcus aureus; in assay [1]) were over 64 µg/mL and 2 µg/mL (≈ 4.46 µM), respectively.

As usually defined, the MIC is the smallest concentration in the dilution series that meets the test's criterion for growth inhibition.

The values are drawn from ChEMBL document CHEMBL5329155, “Synthesis and pharmacological evaluation of 1,3-diaryl substituted pyrazole based (thio)urea derivatives as potent antimicrobial agents against multi-drug resistant Staphylococcus aureus and Mycobacterium tuberculosis” (RSC Med Chem, 2023).
